Assays:
DENV4 (c0036) = assay: Efficacy (EC50) in infected Vero cells; format: cell-based; conditions: Dengue virus
[1] = Cytotoxic concentration (CC50), MTS; format: cell-based; conditions: African green monkey, Vero cells
Procedure: (§1) Cytotoxic concentrations (CC50) were also studied using Vero cells. Briefly, the 10^4 cells were seeded into each well of 96-well plates. After an overnight incubation, phenolic lipids were serially diluted in DMSO to the final concentrations as follows; 25, 50, 100, 200, 300, 400, and 500 µM. Each concentration was performed in quadruplicates. DMSO at 1% was used as a mock treatment referring to 100% cell viability. Cells were incubated for 48 h before cell viability was accessed using CellTiler 96® Aqueous One Solution Cell Proliferation Assay kit (Promega, Wisconsin, USA). Non-linear regression analysis was used to determine cytotoxic concentrations (CC50) of each experiment.

ZIKV = assay: Fusion inhibition study in C6/36 cells; format: cell-based, Zika virus; conditions: 10 µM, C6/36, M.O.I. of 1, 48 h, MES
Procedure: Fusion inhibition study[25]–[27] of DENV and ZIKV were used to confirm the findings. Briefly, cardol triene at 10 µM was added to DENV2 or ZIKV (Fig. 6C-D) infected C6/36 cells at the M.O.I. of 1 for 48 h before inducing acidic condition by MES. The 4G2 antibody was used as a positive control inhibiting both DENV2 and ZIKV fusion. […] Therefore, we concluded that one of the targets of cardol triene, and other CNSL-derived phenolic lipids, was the kl loops of DENV E protein, thus preventing the conformational change of DENV dimer to trimer that was required to initiate pH-dependent fusion.
C6/36 (2 × 10^5) cells were seeded into 24-well plates before infection with DENV2 and ZIKV (M.O.I. of 1) as described. Cardol triene at 10 µM were introduced to the DENV2 and ZIKV infected cells during and after infection. […] Cells were incubate at 28 °C for 2 days before addition of 0.5 M 2-(N-morpholino) ethanesulfonic acid (MES) (pH 5.0) (Sigma Aldrich, St Louis, USA). Moreover, cells from selected wells subsequently underwent DAPI staining. Cell-cell fusion was observed under brightfield and fluorescence using an Eclipse TS100 Inverted Routine Microscope (Nikon, New York, USA).

[2] = Cytotoxic concentration (CC50); format: cell-based; conditions: human
Procedure: Next, the compound mixture were further purified and synthesized into saturated (C15:0), monoene (C15:1), diene (C15:2), and triene (C15:3) as described in materials and methods. Toxicities were analyzed and results were calculated to percent viability and CC50 were analyzed using non-linear regression curve (Table 1). […] Cardanol triene was insoluble in DMSO, therefore the compound was excluded from this study. It could be inferred that the polyunsaturated hydrocarbon may involve in stabilizing the cell membrane. […] Moreover, we further explored the CC50 of cardol triene in other cell lines to verify its protective effect. Three human-derived cell lines (THP-1, HEK-293, and HepG2) were used to co-incubate with cardol triene and cardol mixture (73% diene and 27% triene).
as §1, with “experiment. Results were derived from three independent experiments and reported as means and standard error of the means (SEM).” for “experiment.”

DENV2 = assay: Time of drug addition study (TOA); format: cell-based, Dengue virus; conditions: 10 and 20 µM, added 0-48 h after infection, 72 h incubation
Procedure: Time of drug addition assay is a standard method to primarily identify the possible target of a newly characterized compound[20]. Based on the previous efficacy results, cardol triene was chosen as a representative of all CNSL-derived phenolic lipids. Cardol triene was prepared in DMSO and added to the final concentrations of 10 µM and 20 µM to DENV2 infected Vero cells (M.O.I. of 0.1). The compound was added to the cells at different time-points. DMSO alone was added to the infected cells as a mock treatment. After 72 h incubation, cell lysates and supernatants were collected for analysis of intracellular RNAs and infectious virions by RT-qPCR and plaque titration, respectively.
Vero (5 × 10^4) cells were seeded into each well of 24-well plates. cells were infected with DENV2 (M.O.I. of 0.1) after an overnight incubation[44],[45]. Cardol triene (C15:3) at 10 and 20 µM were added to the cells during (0 h) and after infections at early time-points as follows; 1, 2, 4, 6, 8, 10, 12, 24, 36, and 48 h. Moreover, late time-points after were also accessed at 12, 14, 16, 18, 20, 22, 24, 36, 48, 60, and 72 h after infections. DMSO alone was added to the infected cells at respective time-points as a mock treatment referring to 100% infectivities. […] Data were calculated, assembled, and reported as percent intracellular RNAs and infectious virions under the drug treatment at designated time-points.

DENV3 (16562) = assay: Efficacy (EC50) in infected Vero cells; format: cell-based; conditions: Dengue virus

C=CC/C=C/C/C=C/CCCCCCCc1cc(O)cc(O)c1 [Cardol triene, 5-[8(Z), 11(Z), 14-pentadecatrienyl]resorcinol]
EC50 (DENV4 (c0036)): 8.21 ± 0.34 µM
CC50 at 48 h [1]: 207 ± 5.24 µM
ZIKV pH-dependent cell fusion (ZIKV): ZIKV-induced fused cells and nuclei were present
CC50 ([2]; THP-1 cells): 148 ± 3.78 µM
CC50 ([2]; HEK-293 cells): 92.8 ± 3.93 µM
CC50 ([2]; HepG2 cells): 140 ± 8.44 µM
intracellular RNAs and infectious virions by time of drug addition (DENV2): decreased immediately at 1 h and persisted until 48 h after infections
EC50 (DENV3 (16562)): 8.98 ± 1.77 µM

From article PMC6226472, “Cardol triene inhibits dengue infectivity by targeting kl loops and preventing envelope fusion” (Scientific Reports, 2018)
